From patent publication US8075902B2, “Diagnosis and treatment of cancer related to human dormancy” (priority 2007, dated 2011)

What was measured:
[1] = cited from earlier work
[2] = tested on: AU565 human breast cancer cells; experiment: Combination study (MTT), AU565 breast cancer cells, Example 6; assay type: cell-based; details: 6 days, #3 at 2%, #5 at 4%, #6 at 12.5%, FIG. 4
From the text: To determine if a combination of antimicrobial agents plus anti-hibernation agents would act synergistically to inhibit cancer, we carried out another study with the human breast cancer cell line AU565 in vitro. We used solution #3 as described above, which included isoniazid (INH), rifampin, ethambutol, minocycline, metronidazole, acyclovir and telithromycin at a 2% concentration of the previous mixture used in Example 5. This was to decrease the cell growth inhibition to ease interpretation of the results. We combined #3 with #6 (curcumin) and #3 with #5 (luteolin) to investigate the synergistic potential of these combinations using the following procedure. […] AU565 human breast cancer cells were routinely maintained in RPMI-1640 medium supplemented with 10% fetal bovine serum, 2 mM sodium pyruvate, and 4.2 g/L glucose. The cells were cultured at 37° C. in an atmosphere of 95% air/5% CO2 and 100% humidity. When cells reached 80% confluence, they were harvested using 0.25% trypsin/EDTA solution. The harvested cells were re-suspended in appropriate medium and reseeded in 96-well plate at a density of 3,000 cells/well/200 μl. Cells were allowed to attach for 24 h, then various concentrations of the test compositions were added to each appropriate well. […] At the end of 6 days, viable cells were measured by MTT assay as described above in Example 2. […]

Row | SMILES | half life [1] | percent inhibition of tumor cell growth [2]
1 | O=C1O[C@H]([C@@H](O)CO)C(O)=C1O [Ascorbic acid] | 30 min | 
2 | O=c1cc(-c2ccc(O)c(O)c2)oc2cc(O)cc(O)c12 [Sample #5, Luteolin] |  | 10%
3 | COc1cc(/C=C/C(=O)CC(=O)/C=C/c2ccc(O)c(OC)c2)ccc1O [Sample #6, Curcumin] |  | 9%
